Results reported in ChEMBL document CHEMBL1201862, “PubChem BioAssay data set” (2004).
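Assay format: 96-well plates, 48-hour exposure. GI50 is the concentration that inhibits growth by half.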 Active and inactive are the calls of the source. No stated cut-off is given here; in the data, active = GI50 up to about 1.1 µM and inactive = higher.

Experiments:
Assay in all cases: NCI tumour cell line growth inhibition, 48 h
DMS-273 = system: DMS-273
HCC 2998 = system: HCC 2998
HOP-62 = system: HOP-62
HT-29 = system: HT-29
M19-MEL = system: M19-MEL
MOLT-4 = system: MOLT-4
NCI-H226 = system: NCI-H226
NCI-H23 = system: NCI-H23
SNB-75 = system: SNB-75
UACC-257 = system: UACC-257
UACC-62 = system: UACC-62
UO-31 = system: UO-31
XF498 = system: XF498
786-0 = system: 786-0
DMS-114 = system: DMS-114
LXFL 529 = system: LXFL 529
BT-549 = system: BT-549
Hs-578T = system: Hs-578T
PC-3 = system: PC-3
T47D = system: T47D

Measured: GI50

COCOc1ccc(OC)cc1
inactive: DMS-273 > 100 µM | HCC 2998 > 100 µM | HOP-62 > 100 µM | HT-29 > 100 µM | M19-MEL > 100 µM | MOLT-4 > 100 µM | NCI-H226 > 100 µM | NCI-H23 > 100 µM | SNB-75 > 100 µM | UACC-257 > 100 µM | UACC-62 > 100 µM | UO-31 > 100 µM | XF498 > 100 µM

CC(C)COC(=O)N1N=NC2C3CC(=O)C(O3)C21 (stereo unspecified)
inactive: 786-0 > 100 µM | DMS-114 > 100 µM | DMS-273 > 100 µM | HCC 2998 > 100 µM | HOP-62 > 100 µM | HT-29 > 100 µM | LXFL 529 > 100 µM | M19-MEL > 100 µM | MOLT-4 > 100 µM | NCI-H23 > 100 µM | SNB-75 > 100 µM | UACC-257 > 100 µM | UACC-62 > 100 µM | UO-31 > 100 µM

O=C1c2ccccc2-c2cccc3ccc(Cc4ccc5ccccc5c4)c1c23
inactive: 786-0 76.6 µM | DMS-273 88.3 µM | HCC 2998 > 100 µM | HOP-62 > 100 µM | HT-29 > 100 µM | M19-MEL > 100 µM | MOLT-4 > 100 µM | NCI-H23 > 100 µM | SNB-75 26.4 µM | UACC-257 > 100 µM | UACC-62 > 100 µM | UO-31 > 100 µM | XF498 30.3 µM

Cc1ccc2c(c1-c1ccccc1)C(=O)OC2
inactive: 786-0 > 100 µM | DMS-114 99.3 µM | DMS-273 > 100 µM | HCC 2998 > 100 µM | HOP-62 > 100 µM | HT-29 > 100 µM | LXFL 529 > 100 µM | M19-MEL > 100 µM | MOLT-4 94.4 µM | NCI-H226 > 100 µM | NCI-H23 > 100 µM | SNB-75 > 100 µM | UACC-257 > 100 µM | UACC-62 28.7 µM | UO-31 75 µM

NS(=O)(=O)c1ccc(NNc2c3ccccc3nc3c(C(=O)Nc4ccc(S(N)(=O)=O)cc4)cccc23)cc1
inactive: 786-0 15.6 µM | BT-549 5.85 µM | HCC 2998 17.4 µM | HOP-62 57.3 µM | HT-29 26.9 µM | Hs-578T 19.1 µM | MOLT-4 7.85 µM | NCI-H226 37.6 µM | NCI-H23 28.8 µM | PC-3 30.2 µM | SNB-75 14.5 µM | T47D 6.27 µM | UACC-257 98.4 µM | UACC-62 22.2 µM | UO-31 63 µM

CN1C=C(C(N)=O)Cc2ccsc21
inactive: 786-0 > 100 µM | DMS-114 > 100 µM | DMS-273 > 100 µM | HCC 2998 > 100 µM | HOP-62 > 100 µM | HT-29 > 100 µM | LXFL 529 > 100 µM | M19-MEL > 100 µM | MOLT-4 > 100 µM | NCI-H226 > 100 µM | NCI-H23 > 100 µM | SNB-75 > 100 µM | UACC-257 > 100 µM | UACC-62 > 100 µM | UO-31 > 100 µM

N/N=c1\c2ccccc2c2ccc3c4ccccc4/c(=N\N)c3c12
inactive: 786-0 > 100 µM | DMS-114 > 100 µM | DMS-273 > 100 µM | HCC 2998 > 100 µM | HOP-62 > 100 µM | HT-29 > 100 µM | LXFL 529 > 100 µM | M19-MEL > 100 µM | MOLT-4 > 100 µM | NCI-H226 > 100 µM | NCI-H23 > 100 µM | SNB-75 37.3 µM | UACC-257 > 100 µM | UACC-62 > 100 µM | UO-31 > 100 µM

COc1ccc(C2C(Cl)C(=O)N2NC(=O)c2ccc(NC(C)=O)cc2)cc1OC (stereo unspecified)
inactive: HCC 2998 > 100 µM | HOP-62 > 100 µM | HT-29 > 100 µM | LXFL 529 > 100 µM | M19-MEL > 100 µM | MOLT-4 > 100 µM | NCI-H226 > 100 µM | NCI-H23 > 100 µM | SNB-75 > 100 µM | UACC-257 > 100 µM | UACC-62 > 100 µM | UO-31 > 100 µM

CCc1cccc(CC)c1NC1=CC(=O)C(=O)c2ccccc21
inactive: 786-0 18.9 µM | DMS-114 12.4 µM | DMS-273 19.2 µM | HCC 2998 15 µM | HOP-62 19.5 µM | HT-29 2.06 µM | LXFL 529 19.4 µM | M19-MEL 4.97 µM | MOLT-4 45.7 µM | NCI-H226 23 µM | NCI-H23 1.49 µM | SNB-75 22.8 µM | UACC-257 15 µM | UACC-62 14 µM | UO-31 18.7 µM

Cc1ccc(-c2cc(=O)c(=O)[nH][nH]2)cc1
inactive: 786-0 > 100 µM | BT-549 > 100 µM | HCC 2998 > 100 µM | HOP-62 > 100 µM | HT-29 > 100 µM | Hs-578T 68.4 µM | MOLT-4 > 100 µM | NCI-H226 > 100 µM | NCI-H23 > 100 µM | PC-3 > 100 µM | SNB-75 18 µM | T47D > 100 µM | UACC-257 > 100 µM | UACC-62 > 100 µM | UO-31 > 100 µM

CN1CCC2(CC1)SC[C@H]1C(=O)N(c3ccc(Cl)cc3)C(=O)N12
inactive: 786-0 > 100 µM | BT-549 > 100 µM | HCC 2998 > 100 µM | HOP-62 > 100 µM | HT-29 > 100 µM | Hs-578T > 100 µM | MOLT-4 > 100 µM | NCI-H226 > 100 µM | NCI-H23 > 100 µM | PC-3 > 100 µM | SNB-75 > 100 µM | T47D > 100 µM | UACC-257 > 100 µM | UACC-62 > 100 µM | UO-31 > 100 µM

COc1ccc(NC(=O)C(=O)Cc2ccc([N+](=O)[O-])c([N+](=O)[O-])c2CC(=O)C(=O)Nc2ccc(OC)cc2OC)c(OC)c1
inactive: 786-0 > 100 µM | DMS-114 > 100 µM | DMS-273 > 100 µM | HCC 2998 > 100 µM | HOP-62 > 100 µM | HT-29 > 100 µM | LXFL 529 > 100 µM | M19-MEL 95.9 µM | MOLT-4 > 100 µM | NCI-H226 > 100 µM | NCI-H23 > 100 µM | SNB-75 96.2 µM | UACC-257 > 100 µM | UACC-62 > 100 µM | UO-31 > 100 µM

COc1cc2c(cc1OC)C1=C(C=O)c3ccc(OC)c(OC)c3C(O)N1CC2 (stereo unspecified)
inactive: 786-0 35.2 µM | BT-549 22.2 µM | HCC 2998 13.2 µM | HOP-62 39.7 µM | HT-29 21.4 µM | Hs-578T 23.9 µM | MOLT-4 12.5 µM | NCI-H226 66.5 µM | NCI-H23 24.8 µM | PC-3 17.5 µM | SNB-75 4.75 µM | T47D 21.1 µM | UACC-257 18.5 µM | UACC-62 13.8 µM | UO-31 37.5 µM

Cc1ccc(N2C(=O)N(c3ccc(C)cc3)C3(SC=NN3C)C2=O)cc1 (stereo unspecified)
inactive: 786-0 > 100 µM | DMS-114 31.2 µM | HCC 2998 98.9 µM | HOP-62 > 100 µM | HT-29 32.4 µM | LXFL 529 64.1 µM | M19-MEL 72.6 µM | MOLT-4 63.2 µM | NCI-H226 72.8 µM | NCI-H23 35.2 µM | SNB-75 > 100 µM | UACC-257 38.6 µM | UACC-62 74 µM | UO-31 42 µM
